Values of other authors in patent US11026907B2, “Azelaic acid gel, preparation method and application thereof” (CHENGDU JOY YOUNG BIOTECHNOLOGY CO., LTD., priority 2018, dated 2021).
Like-named read-outs stand apart in the source and are kept apart here.

Solubility (in cold water, ether and benzene): slightly soluble
Solubility (in hot water, alcohol and some polyols): soluble
Structure (SMILES): O=C(O)CCCCCCCC(=O)O [Azelaic acid]
